In experiment [1] the test system is RIG-I deficient CT26 RIG-I−/− cells. Briefly: CXCL10 secretion by RIG-I deficient CT26 RIG-I−/− cells (ELISA). Further: key: −: about 0 pg/mL of CXCL10, or below the level of quantitation. The class given is cell-based, murine. Conditions: compound 5 to 20 μM, 24 h. An outline of the steps:
(§1)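 CT26 murine colon carcinoma cells, parental or CRISPR RIG-I−/−, seeded and grown 24 hr at 37° C, then treated with compounds at 10 μM, or at 5 or 20 μM for some. Secreted CXCL10 measured by ELISA in supernatants 24 h after treatment and reported in pg/mL bands.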

Experiment [2] deals with IRF3-deficient THP1-Lucia™ ISG IRF3−/− cells. Briefly: THP1-Lucia ISG IRF3−/− reporter assay (IRF3-deficient control cells). The class given is cell-based, human. Conditions: compound 5 to 20 μM, 18 h. The method, then: The promoter was comprised of five IFN-stimulated response elements (ISRE) fused to an ISG54 minimal promoter which is unresponsive to NF-kB or AP-1 pathways. […] The IRF3-deficient THP1-Lucia™ ISG IRF3−/−reporter cell line was generated by CRISPR technology from the parent THP1-Lucia™ ISG reporter cell line.
THP1-Lucia™ ISG cells and IRF3-deficient THP1-Lucia™ ISG IRF3−/−cells were differentiated with PMA (100 ng/ml) and stimulated with compounds at the indicated concentrations (5 to 20 μM), positive control, or not treated (background). Luciferase secretion was quantified using the QUANTI-Luc luciferase assay system (InvivoGen) 18 h after stimulation. Data are shown as fold increase luciferase activity over background in Table 7 and represent the IRF3-dependent ISG54 promoter activity by the THP1-Lucia™ ISG cells in response to compounds. […] The fold increase of compounds (10 μM, *20 μM, **5 μM) induced IRF3 dependent luciferase activity is indicated as follows: “≠” indicates less than 2.4 fold increase; “+” indicates a 2.4-4.9 fold increase; “++” indicates a 5-9.9 fold increase; “+++” indicates a 10-19 fold increase; “++++” indicates a 20-39 fold increase; “+++++” indicates greater than or equal to 40 fold increase.

Experiment [3] has as its system IRF3 signaling pathway in THP1-Lucia™ ISG cells. Briefly: THP1-Lucia ISG reporter assay: induction of IRF3-dependent gene expression (secreted luciferase). The format is cell-based, human. Conditions: PMA-differentiated cells, 18 h after stimulation. An outline of the steps:
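PMA-differentiated THP-1 reporter cells (ISRE/ISG54 promoter driving secreted luciferase), plus CRISPR IRF3−/− line, treated with compounds at 5–20 μM (mostly 10 μM). Luciferase measured 18 h later; values are fold increase over untreated background, binned from <2.4 to ≥40.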

Experiment [4] relates to murine CT26 colon carcinoma cells. Put plainly: RIG-I dependent CXCL10 secretion by CT26 cells (ELISA). The class given is cell-based. Conditions: supernatant 24 h after stimulation. In short, it runs like this:
as §1

This is an account of results in patent US20200055871A1, “ACTIVATORS OF THE RETINOIC ACID INDUCIBLE GENE "RIG-I" PATHWAY AND METHODS OF USE THEREOF” (Kineta Immuno-Oncology LLC, priority 2018, published 2020).

For the molecule “6-[2-(morpholin-4-yl)ethoxy]-N-{4-oxo-5,12-dithia-3-azatricyclo[7.3.0.0^2,^6]dodeca-1,6,8,10-tetraen-11-yl}-1-benzothiophene-5-carboxamide [Example 70]”, in experiment [1], the “CXCL10 secretion, CT26 RIG-I−/−” value is “−”. In addition, in experiment [2], the “fold increase of luciferase activity, THP1 ISG IRF3−/−” value (from here on “fold increase of luciferase activity”) was “− (less than 0.5 fold above baseline was considered below the level of quantitation)”.

Take `O=C(Nc1nc2ccc3scnc3c2s1)c1cc2ccccc2cc1OCCNCCO` [Example 46, N-{3,10-dithia-5,12-diazatricyclo[7.3.0.0^2,^6]dodeca-1,4,6,8,11-pentaen-4-yl}-3-{2-[(2-hydroxyethyl)amino]ethoxy}naphthalene-2-carboxamide]: the “CXCL10 secretion, CT26 RIG-I−/−” value in experiment [1] is “−”. The fold induction at 5 µM in experiment [3] (Homo sapiens, THP1-Lucia ISG, 5 μM compound (**), read-out: fold increase of IRF3-dependent luciferase activity over background, THP1 ISG) lay in the range of 2.4 to 4.9. Besides, in experiment [4] (10 μM compound), the “CXCL10 secretion, CT26” value is “+++ (400-799 pg/mL)”.

`O=C(Nc1nc2ccc3scnc3c2s1)c1cc2ccccc2cc1OCCN1CCNCC1` [Example 47, N-{3,10-Dithia-5,12-diazatricyclo[7.3.0.0^2,6]dodeca-1,4,6,8,11-pentaen-4-yl}-3-[2-(piperazin-1-yl)ethoxy]naphthalene-2-carboxamide]: the “CXCL10 secretion, CT26 RIG-I−/−” value in experiment [1] is “−”. Moreover, the fold induction at 10 µM in experiment [3] (Homo sapiens, THP1-Lucia ISG, 10 μM compound, read-out: fold increase of IRF3-dependent luciferase activity over background, THP1 ISG) was in the range of 2.4 to 4.9. Moreover, the “CXCL10 secretion, CT26” value in experiment [4] (10 μM compound) is reported as “+ (100-199 pg/mL)”.

Take `O=C(Nc1nc2c(ccc3scnc32)[nH]1)c1ccc2ccccc2c1` [Example 48, N-{5-thia-3,10,12-triazatricyclo[7.3.0.0^2,^6]dodeca-1,3,6,8,11-pentaen-11-yl}naphthalene-2-carboxamide]: the “CXCL10 secretion, CT26 RIG-I−/−” value in experiment [1] was “−”. The “fold increase of IRF3-dependent luciferase activity over background, THP1 ISG” value (from here on “fold increase … over background, THP1 ISG”) in experiment [3] (20 μM compound (*)) was “++* (a 5-9.9 fold increase)”. In addition, the “fold increase of luciferase activity” value in experiment [2] is given as “− (less than 0.5 fold above baseline was considered below the level of quantitation)”. Moreover, in experiment [4] (20 μM compound (*)), the “CXCL10 secretion, CT26” value is given as “++++* (800 to 1599 pg/mL)”.

In the case of `O=C(Nc1nc2ccc3sccc3c2s1)c1cc2ccccc2cc1OCCCCN1CCOCC1` [Example 49, N-{3,10-dithia-5-azatricyclo[7.3.0.0^2,^6]dodeca-1,4,6,8,11-pentaen-4-yl}-3-[4-(morpholin-4-yl)butoxy]naphthalene-2-carboxamide], the “CXCL10 secretion, CT26 RIG-I−/−” value in experiment [1] is recorded as “−”. Besides, the “fold increase … over background, THP1 ISG” value in experiment [3] (10 μM compound) is reported as “+++ (a 10-19 fold increase)”. Besides, in experiment [2], the “fold increase of luciferase activity” value was “− (less than 0.5 fold above baseline was considered below the level of quantitation)”. Moreover, the “CXCL10 secretion, CT26” value in experiment [4] (10 μM compound) is on record as “++++ (800 to 1599 pg/mL)”.

Turning to `O=C(Nc1nc2ccc3occc3c2s1)c1cc2ccccc2cc1OCCCCN1CCOCC1` [Example 50, 3-[4-(morpholin-4-yl)butoxy]-N-{10-oxa-3-thia-5-azatricyclo[7.3.0.0^2,^6]dodeca-1,4,6,8,11-pentaen-4-yl}naphthalene-2-carboxamide], in experiment [1], the “CXCL10 secretion, CT26 RIG-I−/−” value is “−”. Moreover, the “fold increase … over background, THP1 ISG” value in experiment [3] (10 μM compound) was “+++ (a 10-19 fold increase)”. Moreover, the “fold increase of luciferase activity” value in experiment [2] is “− (less than 0.5 fold above baseline was considered below the level of quantitation)”. Further, the “CXCL10 secretion, CT26” value in experiment [4] (10 μM compound) was “++ (200-399 pg/mL)”.

`O=C(Nc1nc2ccc3occc3c2s1)c1cc2ccccc2cc1OCCN1CCOCC1` [Example 51, 3-[2-(morpholin-4-yl)ethoxy]-N-{10-oxa-3-thia-5-azatricyclo[7.3.0.0^2,^6]dodeca-1,4,6,8,11-pentaen-4-yl}naphthalene-2-carboxamide]: the “CXCL10 secretion, CT26 RIG-I−/−” value in experiment [1] is given as “−”. Further, the “fold increase … over background, THP1 ISG” value in experiment [3] (10 μM compound) was “+++ (a 10-19 fold increase)”. In addition, the “fold increase of luciferase activity” value in experiment [2] was “− (less than 0.5 fold above baseline was considered below the level of quantitation)”. Further, the “CXCL10 secretion, CT26” value in experiment [4] (10 μM compound) was “+++ (400-799 pg/mL)”.

Regarding `O=C(Nc1nc2ccc3ocnc3c2s1)c1cc2ccccc2cc1OCCN1CCOCC1` [Example 52, 3-[2-(morpholin-4-yl)ethoxy]-N-{10-oxa-3-thia-5,12-diazatricyclo[7.3.0.0^2,^6]dodeca-1,4,6,8,11-pentaen-4-yl}naphthalene-2-carboxamide], the “CXCL10 secretion, CT26 RIG-I−/−” value in experiment [1] is “−”. The “fold increase … over background, THP1 ISG” value in experiment [3] (10 μM compound) is listed as “+ (a 2.4-4.9 fold increase)”. The “fold increase of luciferase activity” value in experiment [2] is on record as “− (less than 0.5 fold above baseline was considered below the level of quantitation)”. The “CXCL10 secretion, CT26” value in experiment [4] (10 μM compound) is “+ (100-199 pg/mL)”.

For `O=C(Nc1nc2ccc3ocnc3c2s1)c1cc2ccccc2cc1OCCCCN1CCOCC1` [Example 53, 3-[4-(morpholin-4-yl)butoxy]-N-{10-oxa-3-thia-5,12-diazatricyclo [7.3.0.0^2,^6]dodeca-1,4,6,8,11-pentaen-4-yl}naphthalene-2-carboxamide], in experiment [1], the “CXCL10 secretion, CT26 RIG-I−/−” value is given as “−”. In experiment [3] (10 μM compound), the “fold increase … over background, THP1 ISG” value is “++ (a 5-9.9 fold increase)”. For the same molecule, in experiment [2], the “fold increase of luciferase activity” value was “− (less than 0.5 fold above baseline was considered below the level of quantitation)”. For the same molecule, in experiment [4] (10 μM compound), the “CXCL10 secretion, CT26” value was “+++++ (greater than or equal to 1600 pg/ml)”.

With `O=C(Nc1cc2ccc3scnc3c2s1)c1cc2ccccc2cc1OCCCCN1CCOCC1` [Example 54, N-{5,12-dithia-3-azatricyclo[7.3.0.0^2,^6]dodeca-1,3,6,8,10-pentaen-11-yl}-3-[4-(morpholin-4-yl)butoxy]naphthalene-2-carboxamide], the “CXCL10 secretion, CT26 RIG-I−/−” value in experiment [1] was “−”. In addition, the “fold increase … over background, THP1 ISG” value in experiment [3] (10 μM compound) is reported as “+++ (a 10-19 fold increase)”. Further, the “fold increase of luciferase activity” value in experiment [2] is recorded as “− (less than 0.5 fold above baseline was considered below the level of quantitation)”. In addition, the “CXCL10 secretion, CT26” value in experiment [4] (10 μM compound) is on record as “++++ (800 to 1599 pg/mL)”.

Regarding `O=C(Nc1cc2ccc3scnc3c2s1)c1cc2ccsc2cc1OCCN1CCOCC1` [Example 65, N-{5,12-dithia-3-azatricyclo[7.3.0.0^2,^6]dodeca-1,3,6,8,10-pentaen-11-yl}-6-[2-(morpholin-4-yl)ethoxy]-1-benzothiophene-5-carboxamide], the “fold increase … over background, THP1 ISG” value in experiment [3] (10 μM compound) was “+ (a 2.4-4.9 fold increase)”. The “fold increase of luciferase activity” value in experiment [2] is reported as “− (less than 0.5 fold above baseline was considered below the level of quantitation)”. The “CXCL10 secretion, CT26” value in experiment [4] (10 μM compound) is “≠ (less than 100 pg/mL)”.

In the case of `COc1nc2c(ccc3cc(NC(=O)c4cc5ccsc5cc4OCCCCN4CCOCC4)sc32)s1` [Example 68, N-{4-methoxy-5,12-dithia-3-azatricyclo[7.3.0.0^2,^6]dodeca-1,3,6,8,10-pentaen-11-yl}-6-[4-(morpholin-4-yl)butoxy]-1-benzothiophene-5-carboxamide], the “CXCL10 secretion, CT26 RIG-I−/−” value in experiment [1] is “−”. In addition, the “fold increase of luciferase activity” value in experiment [2] is “− (less than 0.5 fold above baseline was considered below the level of quantitation)”.

Turning to `Cn1ccc2cc(OCCN3CCOCC3)c(C(=O)Nc3nc4ccc5scnc5c4s3)cc21` [Example 69, N-{3,10-dithia-5,12-diazatricyclo[7.3.0.0^2,^6]dodeca-1,4,6,8,11-pentaen-4-yl}-1-methyl-5-[2-(morpholin-4-yl)ethoxy]-1H-indole-6-carboxamide], the “CXCL10 secretion, CT26 RIG-I−/−” value in experiment [1] is reported as “−”. Also, the “fold increase of luciferase activity” value in experiment [2] is “− (less than 0.5 fold above baseline was considered below the level of quantitation)”.

With “N-{4-methoxy-5,12-dithia-3-azatricyclo[7.3.0.0^2,^6]dodeca-1,3,6,8,10-pentaen-11-yl}-6-[2-(morpholin-4-yl)ethoxy]-1-benzothiophene-5-carboxamide [Example 67]”, the “CXCL10 secretion, CT26 RIG-I−/−” value in experiment [1] is recorded as “−”. Also, in experiment [2], the “fold increase of luciferase activity” value is listed as “− (less than 0.5 fold above baseline was considered below the level of quantitation)”.
